What was measured:
Type in all cases: in vivo
Ryegrass [1] = assay: Pre-emergence herbicidal activity (Example 31); parameters: key: 0-3 scale: 0 = 0-25% damage, 3 = 75-99% kill, 3+ = 100% kill; settings: after three weeks
How it was run: (§1)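 Seeded soil boxes (seeds at 2 cm) were sprayed with water-diluted emulsifiable concentrates or milled suspensions, then held under glass. Three weeks later, visual scoring: 0 = 0–25% damage, 3 = 75–99% kill, 3+ = complete kill; unsprayed duplicate boxes as reference.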

Japanese millet [2] = assay: Pre-emergence herbicidal activity (Example 31); settings: after three weeks
How it was run: as §1

Ipomea = assay: Post-emergence herbicidal activity (Example 32); settings: 3 weeks after spraying
How it was run: (§2)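 Herbicidal effect is expressed as a visual 0–3 injury score relative to untreated controls, read 3 weeks after foliar application to glasshouse seedlings about 10 to 12.5 cm tall. Test compositions are water-diluted surfactant-based concentrates or suspensions.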

Japanese millet [3] = assay: Post-emergence herbicidal activity (Example 32); settings: 3 weeks after spraying
How it was run: as §2

Mustard = assay: Post-emergence herbicidal activity (Example 32); settings: 3 weeks after spraying
How it was run: as §2

Ryegrass [4] = assay: Post-emergence herbicidal activity (Example 32); settings: 3 weeks after spraying
How it was run: as §2

Sunflower = assay: Post-emergence herbicidal activity (Example 32); settings: 3 weeks after spraying
How it was run: as §2

Maize = assay: Pre-emergence herbicidal test, fibre trays (Example 33); parameters: key: 0 = 0-20% damage, 5 = complete kill, vs untreated control; settings: 2.0 kg/ha, after 21 days
Description: (§3) The compounds were formulated for test by mixing an appropriate amount with 5 ml of an emulsion prepared by diluting 160 ml of a solution containing 21.S g per litre of "Span" 80 and 78.2 g per litre of "Tween" 20 in methylcyclohexanone to 500 ml with water. "Span" 80 is a Trade Mark for a surface-active agent comprising sorbitan monolaurate. "Tween" 20 is a Trade Mark for a surface-active agent comprising a condensate of sorbitan monolaurate with 20 molar proportions of ethylene oxide. Each 5 ml emulsion containing a test compound was'then diluted to 40 ml with water and sprayed on to young pot plants (post-emergence test) of the species named in Table 5 below. Damage to test plants was assessed after 14 days on a scale of 0 to 5 where 0 is 0 to 20% damage and 5 is complete kill. In a test for pre-emergence herbicidal activity, seeds of the test plants were sown in a shallow slit formed in the surface of soil in fibre trays. The surface was then levelled and sprayed, and fresh soil then spread thinly over the sprayed surface. Assessment of herbicidal damage was carried out after 21 days using the same scale of 0 to 5 as the post-emergence test. In both cases the degree of herbicidal damage was assessed by comparison with untreated control plants. A dash (-) means that no experiment was carried out.

Rice = assay: as above; parameters: key: 0 is 0 to 20% damage; 5 is complete kill; settings: 2.0 kg/ha, after 21 days
Description: as §3

Cotton [5] = assay: as above; settings: 2.0 kg/ha, after 21 days
Description: as §3

Ipomea purpurea [6] = assay: as above; settings: 2.0 kg/ha, after 21 days
Description: as §3

Rape = assay: as above; settings: 2.0 kg/ha, after 21 days
Description: as §3

Senecio vulgaris = assay: as above; settings: 2.0 kg/ha, after 21 days
Description: as §3

Soy bean [7] = assay: as above; settings: 2.0 kg/ha, after 21 days
Description: as §3

Sugar beet [8] = assay: as above; settings: 2.0 kg/ha, after 21 days
Description: as §3

Winter wheat = assay: as above; settings: 2.0 kg/ha, after 21 days
Description: as §3

Amaranthus retroflexus = assay: Post-emergence herbicidal test, young pot plants (Example 33); settings: 2.0 kg/ha, after 14 days
Description: as §3

Chenopodium album = assay: as above; settings: 2.0 kg/ha, after 14 days
Description: as §3

Cotton [9] = assay: as above; settings: 2.0 kg/ha, after 14 days
Description: as §3

Ipomea purpurea [10] = assay: as above; settings: 2.0 kg/ha, after 14 days
Description: as §3

Soy bean [11] = assay: as above; settings: 2.0 kg/ha, after 14 days
Description: as §3

Sugar beet [12] = assay: as above; settings: 2.0 kg/ha, after 14 days
Description: as §3

COC(=O)C(C)Oc1ccc(N(C)c2ccc(Br)cc2[N+](=O)[O-])cc1 (centres unmarked) [Compound 30]
damage to plants, Rg (Ryegrass [1]; 1 kg/ha): 1 | damage to plants, Rg (Ryegrass [1]; 5 kg/ha): 3+ (3+ represents 100% kill) | damage to plants, Jm (Japanese millet [2]; 1 kg/ha): 1 | damage to plants, Jm (Japanese millet [2]; 5 kg/ha): 3 (3 represents 75 to 99% kill) | damage to plants, Ip (Ipomea; 1 kg/ha): 0 (0 represents 0 to 25% damage) | damage to plants, Ip (Ipomea; 5 kg/ha): 0 (0 represents 0 to 25% damage) | damage to plants, Jm (Japanese millet [3]; 1 kg/ha): 3+ (3+ represents 100% kill) | damage to plants, Jm (Japanese millet [3]; 5 kg/ha): 3+ (3+ represents 100% kill) | damage to plants, Ms (Mustard; 1 kg/ha): 0 (0 represents 0 to 25% damage) | damage to plants, Ms (Mustard; 5 kg/ha): 0 (0 represents 0 to 25% damage) | damage to plants, Rg (Ryegrass [4]; 1 kg/ha): 3+ (3+ represents 100% kill) | damage to plants, Rg (Ryegrass [4]; 5 kg/ha): 3+ (3+ represents 100% kill) | damage to plants, Sf (Sunflower; 1 kg/ha): 0 (0 represents 0 to 25% damage) | damage to plants, Sf (Sunflower; 5 kg/ha): 0 (0 represents 0 to 25% damage) | herbicidal damage, Mz (Maize): 2 | herbicidal damage, Rc (Rice): 5 | herbicidal damage, Ct (Cotton [5]): 0 (0 is 0 to 20% damage) | herbicidal damage, Ip (Ipomea purpurea [6]): 0 (0 is 0 to 20% damage) | herbicidal damage, Rp (Rape): 0 (0 is 0 to 20% damage) | herbicidal damage, Sn (Senecio vulgaris): 2 | herbicidal damage, Sy (Soy bean [7]): 0 (0 is 0 to 20% damage) | herbicidal damage, Sb (Sugar beet [8]): 0 (0 is 0 to 20% damage) | herbicidal damage, Ww (Winter wheat): 1 | damage to test plants, Am (Amaranthus retroflexus): 0 (0 is 0 to 20% damage) | damage to test plants, Ca (Chenopodium album): 0 (0 is 0 to 20% damage) | damage to test plants, Ct (Cotton [9]): 0 (0 is 0 to 20% damage) | damage to test plants, Ip (Ipomea purpurea [10]): 0 (0 is 0 to 20% damage) | damage to test plants, Sy (Soy bean [11]): 2 | damage to test plants, Sb (Sugar beet [12]): 0 (0 is 0 to 20% damage)

C#CCN(c1ccc(OC(C)C(=O)OC)cc1)c1ccc(C(F)(F)F)cc1[N+](=O)[O-] (centres unmarked) [Compound 81]
damage to plants, Rg (Ryegrass [1]; 1 kg/ha): 3 (3 represents 75 to 99% kill) | damage to plants, Rg (Ryegrass [1]; 5 kg/ha): 3+ (3+ represents 100% kill) | damage to plants, Jm (Japanese millet [2]; 1 kg/ha): 3+ (3+ represents 100% kill) | damage to plants, Jm (Japanese millet [2]; 5 kg/ha): 3+ (3+ represents 100% kill) | damage to plants, Ip (Ipomea; 1 kg/ha): 0 (0 represents 0 to 25% damage) | damage to plants, Ip (Ipomea; 5 kg/ha): 0 (0 represents 0 to 25% damage) | damage to plants, Jm (Japanese millet [3]; 1 kg/ha): 3+ (3+ represents 100% kill) | damage to plants, Jm (Japanese millet [3]; 5 kg/ha): 3+ (3+ represents 100% kill) | damage to plants, Ms (Mustard; 1 kg/ha): 0 (0 represents 0 to 25% damage) | damage to plants, Ms (Mustard; 5 kg/ha): 0 (0 represents 0 to 25% damage) | damage to plants, Rg (Ryegrass [4]; 1 kg/ha): 3 (3 represents 75 to 99% kill) | damage to plants, Rg (Ryegrass [4]; 5 kg/ha): 3+ (3+ represents 100% kill) | damage to plants, Sf (Sunflower; 1 kg/ha): 0 (0 represents 0 to 25% damage) | damage to plants, Sf (Sunflower; 5 kg/ha): 0 (0 represents 0 to 25% damage) | herbicidal damage, Mz (Maize): 3 | herbicidal damage, Rc (Rice): 4 | herbicidal damage, Ct (Cotton [5]): 0 (0 is 0 to 20% damage) | herbicidal damage, Ip (Ipomea purpurea [6]): 0 (0 is 0 to 20% damage) | herbicidal damage, Rp (Rape): 0 (0 is 0 to 20% damage) | herbicidal damage, Sn (Senecio vulgaris): 0 (0 is 0 to 20% damage) | herbicidal damage, Sy (Soy bean [7]): 0 (0 is 0 to 20% damage) | herbicidal damage, Sb (Sugar beet [8]): 0 (0 is 0 to 20% damage) | herbicidal damage, Ww (Winter wheat): 4 | damage to test plants, Am (Amaranthus retroflexus): 0 (0 is 0 to 20% damage) | damage to test plants, Ca (Chenopodium album): 0 (0 is 0 to 20% damage) | damage to test plants, Ct (Cotton [9]): 0 (0 is 0 to 20% damage) | damage to test plants, Ip (Ipomea purpurea [10]): 0 (0 is 0 to 20% damage) | damage to test plants, Sy (Soy bean [11]): 0 (0 is 0 to 20% damage) | damage to test plants, Sb (Sugar beet [12]): 3

COC(=O)C(C)Oc1ccc(N(C)c2ccc(Cl)cc2Cl)cc1 (centres unmarked) [Compound 1, Methyl 2-[4-(2,4-dichloro-N-methylanilino)phenoxy]-propionate]
damage to plants, Rg (Ryegrass [1]; 1 kg/ha): 1 | damage to plants, Rg (Ryegrass [1]; 5 kg/ha): 3 (3 represents 75 to 99% kill) | damage to plants, Jm (Japanese millet [2]; 1 kg/ha): 0 (0 represents from 0 to 25% damage) | damage to plants, Jm (Japanese millet [2]; 5 kg/ha): 0 (0 represents from 0 to 25% damage) | damage to plants, Ip (Ipomea; 1 kg/ha): 0 (0 represents 0 to 25% damage) | damage to plants, Ip (Ipomea; 5 kg/ha): 0 (0 represents 0 to 25% damage) | damage to plants, Jm (Japanese millet [3]; 1 kg/ha): 3+ (3+ represents 100% kill) | damage to plants, Jm (Japanese millet [3]; 5 kg/ha): 3+ (3+ represents 100% kill) | damage to plants, Ms (Mustard; 1 kg/ha): 0 (0 represents 0 to 25% damage) | damage to plants, Ms (Mustard; 5 kg/ha): 0 (0 represents 0 to 25% damage) | damage to plants, Rg (Ryegrass [4]; 1 kg/ha): 3+ (3+ represents 100% kill) | damage to plants, Rg (Ryegrass [4]; 5 kg/ha): 3+ (3+ represents 100% kill) | damage to plants, Sf (Sunflower; 1 kg/ha): 0 (0 represents 0 to 25% damage) | damage to plants, Sf (Sunflower; 5 kg/ha): 0 (0 represents 0 to 25% damage) | herbicidal damage, Mz (Maize): 0 (0 is 0 to 20% damage) | herbicidal damage, Rc (Rice): 0 (0 is 0 to 20% damage) | herbicidal damage, Ct (Cotton [5]): 0 (0 is 0 to 20% damage) | herbicidal damage, Ip (Ipomea purpurea [6]): 0 (0 is 0 to 20% damage) | herbicidal damage, Rp (Rape): 2 | herbicidal damage, Sn (Senecio vulgaris): 0 (0 is 0 to 20% damage) | herbicidal damage, Sy (Soy bean [7]): 2 | herbicidal damage, Sb (Sugar beet [8]): 0 (0 is 0 to 20% damage) | herbicidal damage, Ww (Winter wheat): 0 (0 is 0 to 20% damage) | damage to test plants, Am (Amaranthus retroflexus): 2 | damage to test plants, Ca (Chenopodium album): 3 | damage to test plants, Ct (Cotton [9]): 1 | damage to test plants, Ip (Ipomea purpurea [10]): 0 (0 is 0 to 20% damage) | damage to test plants, Sy (Soy bean [11]): 1 | damage to test plants, Sb (Sugar beet [12]): 3

COC(=O)C(C)Oc1ccc(Nc2ccc(Br)cc2[N+](=O)[O-])cc1 (centres unmarked) [Compound 29]
damage to plants, Rg (Ryegrass [1]; 1 kg/ha): 2 | damage to plants, Rg (Ryegrass [1]; 5 kg/ha): 3 (3 represents 75 to 99% kill) | damage to plants, Jm (Japanese millet [2]; 1 kg/ha): 2 | damage to plants, Jm (Japanese millet [2]; 5 kg/ha): 3 (3 represents 75 to 99% kill) | damage to plants, Ip (Ipomea; 1 kg/ha): 0 (0 represents 0 to 25% damage) | damage to plants, Ip (Ipomea; 5 kg/ha): 0 (0 represents 0 to 25% damage) | damage to plants, Jm (Japanese millet [3]; 1 kg/ha): 3 (3 represents 75 to 99% kill) | damage to plants, Jm (Japanese millet [3]; 5 kg/ha): 3+ (3+ represents 100% kill) | damage to plants, Ms (Mustard; 1 kg/ha): 0 (0 represents 0 to 25% damage) | damage to plants, Ms (Mustard; 5 kg/ha): 0 (0 represents 0 to 25% damage) | damage to plants, Rg (Ryegrass [4]; 1 kg/ha): 3 (3 represents 75 to 99% kill) | damage to plants, Rg (Ryegrass [4]; 5 kg/ha): 3+ (3+ represents 100% kill) | damage to plants, Sf (Sunflower; 1 kg/ha): 0 (0 represents 0 to 25% damage) | damage to plants, Sf (Sunflower; 5 kg/ha): 0 (0 represents 0 to 25% damage) | herbicidal damage, Mz (Maize): 1 | herbicidal damage, Rc (Rice): 3 | herbicidal damage, Ct (Cotton [5]): 0 (0 is 0 to 20% damage) | herbicidal damage, Ip (Ipomea purpurea [6]): 0 (0 is 0 to 20% damage) | herbicidal damage, Rp (Rape): 0 (0 is 0 to 20% damage) | herbicidal damage, Sn (Senecio vulgaris): 3 | herbicidal damage, Sy (Soy bean [7]): 0 (0 is 0 to 20% damage) | herbicidal damage, Sb (Sugar beet [8]): 0 (0 is 0 to 20% damage) | herbicidal damage, Ww (Winter wheat): 3 | damage to test plants, Am (Amaranthus retroflexus): 0 (0 is 0 to 20% damage) | damage to test plants, Ca (Chenopodium album): 0 (0 is 0 to 20% damage) | damage to test plants, Ct (Cotton [9]): 0 (0 is 0 to 20% damage) | damage to test plants, Ip (Ipomea purpurea [10]): 0 (0 is 0 to 20% damage) | damage to test plants, Sy (Soy bean [11]): 2 | damage to test plants, Sb (Sugar beet [12]): 0 (0 is 0 to 20% damage)

— patent publication EP0013144A1, “Substituted diphenylamine derivatives, compositions and herbicidal uses thereof, and processes for their preparation” (ICI AUSTRALIA LIMITED, priority 1978, dated 1980)
